Measured values reported in the supplement of paper PMC10307832.

Legend:
Assay in all cases: relative viability (nuclei count vs DMSO), 5 days (fraction); higher = more cells survive
Adavosertib + OSI-027 = compound: C=CCn1c(=O)c2cnc(Nc3ccc(N4CCN(C)CC4)cc3)nc2n1-c1cccc(C(C)(C)O)n1 [Adavosertib] + COc1cccc2cc(-c3nc([C@H]4CC[C@H](C(=O)O)CC4)n4ncnc(N)c34)[nH]c12 [OSI-027] (partner 0.5 µM)
Method in brief: (§1)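 Five library-drug doses in √10 steps were combined with a fixed anchor-drug dose, or a single drug was given alone, by pin tool to lung cancer cell lines in 1536-well plates the day after seeding. Nuclei were stained and counted after 5 days. Relative viability is the nuclei count in treated wells over that in vehicle wells, taken as the median of duplicate plates.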

Nelarabine + Lapatinib = compound: COc1nc(N)nc2c1ncn2[C@@H]1O[C@H](CO)[C@@H](O)[C@@H]1O [Nelarabine] + CS(=O)(=O)CCNCc1ccc(-c2ccc3ncnc(Nc4ccc(OCc5cccc(F)c5)c(Cl)c4)c3c2)o1 [Lapatinib] (partner 2 µM)
Method in brief: as §1

Nelarabine + Dasatinib = compound: COc1nc(N)nc2c1ncn2[C@@H]1O[C@H](CO)[C@@H](O)[C@@H]1O [Nelarabine] + Cc1nc(Nc2ncc(C(=O)Nc3c(C)cccc3Cl)s2)cc(N2CCN(CCO)CC2)n1 [Dasatinib] (partner 0.075 µM)
Method in brief: as §1

Adavosertib + Pictilisib = compound: C=CCn1c(=O)c2cnc(Nc3ccc(N4CCN(C)CC4)cc3)nc2n1-c1cccc(C(C)(C)O)n1 [Adavosertib] + CS(=O)(=O)N1CCN(Cc2cc3nc(-c4cccc5[nH]ncc45)nc(N4CCOCC4)c3s2)CC1 [Pictilisib] (partner 1 µM)
Method in brief: as §1

Row | Cell Line | relative viability (Adavosertib + OSI-027; first compound 0.01 µM) | relative viability (Adavosertib + OSI-027; first compound 0.03162 µM) | relative viability (Adavosertib + OSI-027; first compound 0.1 µM) | relative viability (Adavosertib + OSI-027; first compound 0.3162 µM) | relative viability (Nelarabine + Lapatinib; first compound 0.01 µM) | relative viability (Nelarabine + Lapatinib; first compound 0.03162 µM) | relative viability (Nelarabine + Lapatinib; first compound 0.1 µM) | relative viability (Nelarabine + Lapatinib; first compound 0.3162 µM) | relative viability (Nelarabine + Lapatinib; first compound 1 µM) | relative viability (Nelarabine + Dasatinib; first compound 0.01 µM) | relative viability (Nelarabine + Dasatinib; first compound 0.03162 µM) | relative viability (Nelarabine + Dasatinib; first compound 0.1 µM) | relative viability (Nelarabine + Dasatinib; first compound 0.3162 µM) | relative viability (Nelarabine + Dasatinib; first compound 1 µM) | relative viability (Adavosertib + Pictilisib; first compound 0.01 µM) | relative viability (Adavosertib + Pictilisib; first compound 0.03162 µM) | relative viability (Adavosertib + Pictilisib; first compound 0.1 µM) | relative viability (Adavosertib + Pictilisib; first compound 0.3162 µM)
1 | NCI-H2009 | 0.698 | 0.644 | 0.651 | 0.366 | 1.04 | 1.03 | 0.869 | 1.07 | 1.03 | 0.348 | 0.288 | 0.2 | 0.307 | 0.315 | 0.766 | 0.847 | 0.68 | 0.395
2 | NCI-H2228 | 0.509 | 0.651 | 0.618 | 0.142 | 1.1 | 1.1 |  | 0.974 | 0.977 | 0.725 | 0.481 |  | 0.629 | 0.559 | 0.695 | 0.45 | 0.448 | 0.305
3 | NCI-H1395 | 0.69 | 0.727 | 0.656 | 0.492 | 0.959 | 1.1 | 1.23 | 0.971 | 1.5 | 0.418 | 0.39 | 0.413 | 0.408 | 0.408 | 0.545 | 0.546 | 0.596 | 0.635
4 | LK-2 | 0.17 | 0.208 | 0.207 | 0.216 | 1.23 |  | 1.03 | 1.02 | 1.05 | 0.337 |  | 0.216 | 0.352 | 0.266 | 0.549 | 0.622 | 0.676 | 0.59
5 | NCI-H520 | 0.298 | 0.262 | 0.212 | 0.224 | 0.991 | 0.947 | 1.31 | 0.889 | 0.887 | 0.245 | 0.22 | 0.2 | 0.214 | 0.207 | 0.288 | 0.286 | 0.381 | 0.269
6 | CAL-12T | 0.568 | 0.711 | 0.582 | 0.235 | 0.699 | 0.743 | 0.611 | 0.685 | 0.688 | 0.426 | 0.484 | 0.16 | 0.51 | 0.482 |  | 0.396 | 0.412 | 0.274
7 | NCI-H460 | 0.758 | 0.667 | 0.561 | 0.341 |  | 1.76 | 1.84 | 1.62 | 1.27 | 0.66 | 0.601 | 0.452 | 0.64 | 0.495 | 0.315 | 0.355 | 0.289 | 0.417
8 | NCI-H1944 | 0.378 | 0.429 | 0.394 | 0.402 | 0.895 | 0.782 | 0.841 | 0.799 | 0.845 | 0.211 | 0.213 | 0.196 | 0.185 | 0.194 | 0.387 | 0.333 | 0.333 | 0.326
9 | NCI-H1437 | 0.931 | 0.868 | 0.973 | 0.788 | 1.06 | 0.83 | 0.815 | 0.839 | 0.79 | 0.554 | 0.468 | 0.304 | 0.466 | 0.362 | 0.371 | 0.435 | 0.401 | 0.404
10 | NCI-H2087 | 0.591 | 0.685 | 0.603 | 0.478 | 1 | 1.02 | 1.09 | 1.07 | 1.32 | 1.14 | 0.718 | 0.526 | 0.981 | 1.09 | 0.86 | 0.947 | 0.833 | 0.923
11 | LU99A | 0.314 | 0.282 | 0.307 | 0.298 | 1.15 | 1.04 | 1.19 | 1.12 | 1.1 | 0.522 | 0.506 | 0.36 | 0.51 | 0.797 | 0.341 | 0.303 | 0.354 | 0.241
12 | NCI-H1993 | 0.559 | 0.537 | 0.638 | 0.573 | 0.836 | 0.774 | 0.81 | 0.67 | 0.785 | 0.692 | 0.505 | 0.553 | 0.665 | 0.635 | 0.858 | 0.818 | 0.932 | 0.719
13 | NCI-H2347 | 0.515 | 0.414 | 0.473 | 0.298 | 0.977 | 0.904 | 0.94 | 0.954 | 0.992 | 0.328 | 0.306 | 0.252 | 0.289 | 0.308 | 0.567 | 0.61 | 0.297 | 0.762
14 | NCI-H1734 | 0.608 | 0.638 | 0.604 | 0.377 | 1.23 | 1.22 | 1.09 | 1.08 | 1.06 | 0.559 | 0.411 | 0.418 | 0.527 | 0.532 | 0.41 | 0.434 | 0.478 | 0.31
15 | LCLC-97TM1 | 0.484 | 0.459 | 0.584 | 0.49 | 0.854 | 0.778 | 0.667 | 0.818 | 1.14 | 1.03 | 0.506 | 0.779 | 0.95 | 0.806 |  | 0.146 | 0.223 | 0.167
16 | HOP-62 | 0.92 | 0.907 | 0.852 | 0.85 | 1.35 | 1.08 | 1.18 | 1.11 | 1 | 0.635 | 0.636 | 0.395 | 0.764 | 0.738 | 0.771 | 0.891 | 0.762 | 0.961
17 | NCI-H2405 | 0.668 | 0.667 | 0.669 | 0.628 | 1.14 | 1.13 | 0.904 | 1.06 | 1.04 | 0.208 | 0.244 | 0.233 | 0.21 | 0.229 | 0.466 | 0.412 | 0.437 | 0.373
18 | HCC-78 | 0.355 | 0.354 | 0.325 | 0.339 | 0.731 | 0.779 |  | 0.902 | 0.631 | 0.384 | 0.358 |  | 0.459 | 0.37 | 0.194 | 0.221 | 0.255 | 0.171
